Assay results reported in patent US9023789B2, “Amylin analogs and pharmaceutical compositions thereof” (Novo Nordisk A/S, priority 2012, dated 2015).
pIC50: −log10 of the molar value. ≈ marks a conversion by molar mass, not a printed value. Like-named read-outs stand apart in the source and are kept apart here. Numbered stars: 1 amine (or outer) side, 2 acyl side, 3 side chain; on linkers, the order of the positions; unused ones are H or OH. Bridge positions count the residues as written; N and C are the ends. Side chains are listed from the residue outwards. Peptide text beside a SMILES is read from it. * marks the point of attachment. C20 diacid = O=C(O)CCCCCCCCCCCCCCCCCCC(=O)*; γGlu = O=C(O)[C@H](CCC(=O)[*:2])N[*:1]

Tests used:
Sprague Dawley (SD) rats = experiment: ASSAY (I) efficacy testing on appetite (food intake) using an ad libitum fed rat model; type: in vivo; conditions: rat, 30 nmol/kg
How it was run: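 Ad libitum fed SD rats (200–250 g) were housed singly on a reversed light/dark cycle and given one 0.01–3 mg/kg dose ip, po or sc just before lights-off, with 5–8 per dose group plus vehicle controls. Food intake was recorded hourly for 7 h, then at 24 h and sometimes 48 h; Grubbs outliers were excluded.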

[1] = ASSAY (IV) determination of solubility; type: physicochemical
How it was run: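 Polypeptide stock in water ([…]) was mixed 1:1 with 100 mM buffers: glycylglycine at pH 3.0, 4.0, 5.0 and bistrispropane at pH 6.0, 6.5, 7.0, 7.5, 8.0. After 18 hours at room temperature, samples were centrifuged and polypeptide concentration measured by UPLC.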

[2] = biological target: T1, human amylin receptor (membranes from Amylin 3(a)/CRE-luc cells) (Homo sapiens, UniProt O60896+P30988); experiment: ASSAY (V) binding to the human amylin receptor (SPA, 125I-rat amylin); conditions: for pIC50: Table 4, read-out: hAmylin-R bind IC50;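 on all read-outs here: competition binding of cell membranes (35 ng/µL) mixed with SPA beads in 384-well plates at 40 µL total volume, read by scintillation counting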
T1 construct: expressed in transfected cells
T1 sequence (P30988 25-474): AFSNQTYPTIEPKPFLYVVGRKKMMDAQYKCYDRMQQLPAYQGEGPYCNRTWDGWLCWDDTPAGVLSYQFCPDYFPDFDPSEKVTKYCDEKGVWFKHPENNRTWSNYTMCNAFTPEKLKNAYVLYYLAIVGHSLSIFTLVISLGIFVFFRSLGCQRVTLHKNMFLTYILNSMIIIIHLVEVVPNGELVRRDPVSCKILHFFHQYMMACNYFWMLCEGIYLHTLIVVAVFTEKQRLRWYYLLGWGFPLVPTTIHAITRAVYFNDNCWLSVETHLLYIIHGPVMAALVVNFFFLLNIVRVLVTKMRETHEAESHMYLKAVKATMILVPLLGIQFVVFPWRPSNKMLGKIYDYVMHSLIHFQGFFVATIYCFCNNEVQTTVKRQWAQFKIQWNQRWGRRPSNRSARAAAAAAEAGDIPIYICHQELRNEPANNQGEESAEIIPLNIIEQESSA
T1 sequence (O60896 24-148 partner): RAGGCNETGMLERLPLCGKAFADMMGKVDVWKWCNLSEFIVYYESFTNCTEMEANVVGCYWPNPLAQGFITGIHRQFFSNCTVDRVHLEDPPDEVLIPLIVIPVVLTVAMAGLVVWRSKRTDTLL

[3] = biological target: T2, rat amylin receptor (rat calcitonin receptor + rat RAMP 3) (Rattus norvegicus, UniProt P32214+Q9JJ73); experiment: ASSAY (VI) binding to the rat amylin receptor; conditions: for pIC50: binding to rat amylin receptor, read-out: rAmylin-R bind IC50
T2 construct: expressed in transfected cells; host or cells: BHK tk'ts 13 (transient, FuGENE 6), membranes
T2 sequence (P32214 25-479 isoform P32214-2 limits assumed): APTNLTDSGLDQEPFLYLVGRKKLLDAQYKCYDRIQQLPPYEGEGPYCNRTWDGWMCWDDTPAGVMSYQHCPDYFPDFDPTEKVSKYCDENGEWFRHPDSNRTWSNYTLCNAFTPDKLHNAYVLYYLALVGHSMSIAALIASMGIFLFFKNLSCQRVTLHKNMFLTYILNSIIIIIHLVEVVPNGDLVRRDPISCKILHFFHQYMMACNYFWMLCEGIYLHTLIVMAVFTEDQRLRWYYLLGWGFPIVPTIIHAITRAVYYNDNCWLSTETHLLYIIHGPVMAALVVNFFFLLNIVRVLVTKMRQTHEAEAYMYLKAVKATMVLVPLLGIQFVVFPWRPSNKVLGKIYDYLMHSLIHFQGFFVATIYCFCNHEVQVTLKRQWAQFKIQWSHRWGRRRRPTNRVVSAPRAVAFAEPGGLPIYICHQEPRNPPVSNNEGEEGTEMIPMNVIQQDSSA
T2 sequence (Q9JJ73 23-147 partner): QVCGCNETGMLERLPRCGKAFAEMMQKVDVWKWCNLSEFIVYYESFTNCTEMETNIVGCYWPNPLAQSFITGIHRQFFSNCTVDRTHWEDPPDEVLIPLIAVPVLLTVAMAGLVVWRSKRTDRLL
How it was run: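 Binding to the rat amylin receptor was determined with membrane preparations. The receptor was expressed by transiently transfecting BHK tk′ts 13 cells with rat calcitonin receptor, using FuGENE® 6 (Roche) according to the manufacturer's recommendations. Roughly 48 hours later the cells were harvested and their membranes isolated.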

rat calcitonin receptor = biological target: T3, rat calcitonin receptor (Rattus norvegicus, UniProt P32214); experiment: ASSAY (VIII) binding to the rat calcitonin receptor; conditions: Table 7, read-out: rCTR bind IC50
T3 construct: expressed in transfected cells; host or cells: BHK tk'ts 13 (transient, FuGENE 6), membranes
T3 sequence (P32214 25-479 isoform P32214-2 limits assumed): T2 sequence (P32214 25-479 isoform P32214-2 limits assumed)
How it was run: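 Transfect BHK tk′ts 13 cells transiently with rat calcitonin receptor, culture in DMEM containing 10% FBS, collect cells about 48 hours later, then prepare membranes.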

[4] = bistrispropane buffer, pH 6.5, read-out: Solubility pH 6.5 Concentration
[5] = bistrispropane buffer, pH 7.5, read-out: Solubility pH 7.5 Concentration
[6] = bistrispropane buffer, pH 6.0, read-out: Solubility pH 6.0 Concentration
[7] = bistrispropane buffer, pH 7.0, read-out: Solubility pH 7.0 Concentration
[8] = bistrispropane buffer, pH 8.0, read-out: Solubility pH 8.0 Concentration
[9] = glycylglycine buffer, pH 3.0, read-out: Solubility pH 3.0 Concentration
[10] = glycylglycine buffer, pH 4.0, read-out: Solubility pH 4.0 Concentration
[11] = glycylglycine buffer, pH 5.0, read-out: Solubility pH 5.0 Concentration
[12] = Table 5, selectivity, hCTR bind IC50 / hAmylin-R bind IC50
[13] = Table 5a, selectivity, hCTR bind IC50 / hAmylin-R bind IC50
[14] = Table 5b, selectivity, hCTR bind IC50 / hAmylin-R bind IC50
[15] = Table 5c, selectivity, hCTR bind IC50 / hAmylin-R bind IC50
[16] = Table 7, human binding selectivity, included for comparison
[17] = Table 7a (preferred compounds), human binding selectivity, included for comparison
[18] = ratio of human calcitonin receptor binding IC50 to human amylin receptor binding IC50
[19] = Table 7, rat binding selectivity, rCTR IC50 / rAmylin-R IC50
[20] = Table 7a (preferred compounds), rat binding selectivity, rCTR IC50 / rAmylin-R IC50
[21] = ratio of rCTR bind IC50 to rAmylin-R bind IC50

SMILES | Food intake reduction 0-24 h 30 nmol/kg (%) (Sprague Dawley (SD) rats) | Food intake reduction 24-48 h 30 nmol/kg (%) (Sprague Dawley (SD) rats) | solubility at 18 h [1, 4] [µM] | solubility at 18 h [1, 5] [µM] | solubility at 18 h [1, 6] [µM] | solubility at 18 h [1, 7] [µM] | solubility at 18 h [1, 8] [µM] | solubility at 18 h [1, 9] [µM] | solubility at 18 h [1, 10] [µM] | solubility at 18 h [1, 11] [µM] | Ratio hCT/hAmylin binding [2, 12] | Ratio hCT/hAmylin binding [2, 13] | Ratio hCT/hAmylin binding [2, 14] | Ratio hCT/hAmylin binding [2, 15] | Ratio hCT/hAmylin binding [2, 16] | Ratio hCT/hAmylin binding [2, 17] | Ratio hCT/hAmylin binding [2, 18] | pIC50 ([3]; Table 7) | Ratio rCT/rAmylin binding [3, 19] | Ratio rCT/rAmylin binding [3, 20] | also measured
CC[C@H](C)[C@H](NC(=O)[C@H](C)NC(=O)CNC(=O)[C@H](Cc1ccccc1)NC(=O)[C@H](CC(N)=O)NC(=O)[C@@H]1CCCN1C(=O)[C@H](CO)NC(=O)[C@H](CO)NC(=O)[C@H](Cc1c[nH]cn1)NC(=O)[C@H](CCCNC(=N)N)NC(=O)[C@H](CC(C)C)NC(=O)[C@H](Cc1ccccc1)NC(=O)[C@H](CCC(=O)O)NC(=O)[C@H](C)NC(=O)[C@H](CC(C)C)NC(=O)[C@H](CCCNC(=N)N)NC(=O)[C@H](CCC(N)=O)NC(=O)[C@@H](NC(=O)[C@H](C)NC(=O)[C@@H]1CSSC[C@H](NC(=O)[C@@H](N)CCCCNC(=O)CC[C@H](NC(=O)CCCCCCCCCCCCCCCCCCC(=O)O)C(=O)O)C(=O)N[C@@H](CC(N)=O)C(=O)N[C@@H]([C@@H](C)O)C(=O)N[C@@H](C)C(=O)N[C@@H]([C@@H](C)O)C(=O)N1)[C@@H](C)O)C(=O)N1CCC[C@H]1C(=O)N[C@@H](CO)C(=O)N[C@@H](CO)C(=O)N[C@H](C(=O)N[C@@H](CC(N)=O)C(=O)N[C@H](C(=O)NCC(=O)N[C@@H](CCCNC(=N)N)C(=O)N[C@@H](CCC(=O)O)C(=O)N[C@H](C(=O)N[C@@H](Cc1ccc(O)cc1)C(N)=O)[C@@H](C)O)C(C)C)[C@@H](C)O [Example 108] (H-K([γGlu-C20 diacid])CNTATCATQRLAEFLRHSSPNFGAIPSSTNVGRETY-NH2; disulfide 2-7; N-terminus assumed) | 29 | 0 | ≥ 200 | ≥ 200 | ≥ 200 | ≥ 200 | ≥ 200 | ≥ 200 | ≥ 200 | ≥ 200 | 28.5 | 28.5 | 28.5 | 28.5 | 28.5 | 28.5 | 28.5 | 8.97 | 81.1 | 81.1 | pIC50 [2]: 9.63; Ratio rCT/rAmylin binding [3, 21]: 81.1; pIC50 (rat calcitonin receptor): 7.07
CC[C@H](C)[C@H](NC(=O)[C@H](C)NC(=O)CNC(=O)[C@H](Cc1ccccc1)NC(=O)[C@H](CC(N)=O)NC(=O)[C@@H]1CCCN1C(=O)[C@H](CO)NC(=O)[C@H](CO)NC(=O)[C@H](Cc1c[nH]cn1)NC(=O)[C@H](CCCNC(=N)N)NC(=O)[C@H](CC(C)C)NC(=O)[C@H](Cc1ccccc1)NC(=O)[C@H](CCC(=O)O)NC(=O)[C@H](C)NC(=O)[C@H](CC(C)C)NC(=O)[C@H](CCCNC(=N)N)NC(=O)[C@H](CCC(N)=O)NC(=O)[C@@H](NC(=O)[C@H](C)NC(=O)[C@@H]1CSSC[C@H](NC(=O)[C@@H](N)CCCCNC(=O)CC[C@H](NC(=O)CC[C@H](NC(=O)CCCCCCCCCCCCCCCCCCC(=O)O)C(=O)O)C(=O)O)C(=O)N[C@@H](CC(N)=O)C(=O)N[C@@H]([C@@H](C)O)C(=O)N[C@@H](C)C(=O)N[C@@H]([C@@H](C)O)C(=O)N1)[C@@H](C)O)C(=O)N1CCC[C@H]1C(=O)N[C@@H](CO)C(=O)N[C@@H](CO)C(=O)N[C@H](C(=O)N[C@@H](CC(N)=O)C(=O)N[C@H](C(=O)NCC(=O)N1CCC[C@H]1C(=O)N[C@@H](CCCNC(=N)N)C(=O)N[C@H](C(=O)N[C@@H](Cc1ccc(O)cc1)C(N)=O)[C@@H](C)O)C(C)C)[C@@H](C)O [Example 110] (H-K([γGlu-γGlu-C20 diacid])CNTATCATQRLAEFLRHSSPNFGAIPSSTNVGPRTY-NH2; disulfide 2-7) | 68 | 31 | ≥ 200 | 184 (≈ 842 µg/mL) | ≥ 200 | ≥ 200 | 166 (≈ 760 µg/mL) | ≥ 200 | ≥ 200 | ≥ 200 | 53.6 | 53.6 | 53.6 | 53.6 | 53.6 | 53.6 | 53.6 | 9.47 | 112.9 | 112.9 | pIC50 [2]: 9.49; Ratio rCT/rAmylin binding [3, 21]: 112.9; pIC50 (rat calcitonin receptor): 7.42
CC[C@H](C)[C@H](NC(=O)[C@H](C)NC(=O)CNC(=O)[C@H](Cc1ccccc1)NC(=O)[C@H](CC(N)=O)NC(=O)[C@@H]1CCCN1C(=O)[C@H](CO)NC(=O)[C@H](CO)NC(=O)[C@H](Cc1c[nH]cn1)NC(=O)[C@H](CCCNC(=N)N)NC(=O)[C@H](CC(C)C)NC(=O)[C@H](Cc1ccccc1)NC(=O)[C@H](CCC(=O)O)NC(=O)[C@H](C)NC(=O)[C@H](CC(C)C)NC(=O)[C@H](CCCNC(=N)N)NC(=O)[C@H](CCC(N)=O)NC(=O)[C@@H](NC(=O)[C@H](C)NC(=O)[C@@H]1CSSC[C@H](NC(=O)[C@@H](N)CCCCNC(=O)CC[C@H](NC(=O)CC[C@H](NC(=O)CCCCCCCCCCCCCCCCCCC(=O)O)C(=O)O)C(=O)O)C(=O)N[C@@H](CC(N)=O)C(=O)N[C@@H]([C@@H](C)O)C(=O)N[C@@H](C)C(=O)N[C@@H]([C@@H](C)O)C(=O)N1)[C@@H](C)O)C(=O)N1CCC[C@H]1C(=O)N[C@@H](CO)C(=O)N[C@@H](CO)C(=O)N[C@H](C(=O)N[C@@H](CC(N)=O)C(=O)N[C@H](C(=O)NCC(=O)N1CCC[C@H]1C(=O)N[C@@H](Cc1c[nH]cn1)C(=O)N[C@H](C(=O)N[C@@H](Cc1ccc(O)cc1)C(N)=O)[C@@H](C)O)C(C)C)[C@@H](C)O [Example 124] (H-K([γGlu-γGlu-C20 diacid])CNTATCATQRLAEFLRHSSPNFGAIPSSTNVGPHTY-NH2; disulfide 2-7 (inferred)) | 73 | 38 | ≥ 200 | ≥ 200 | ≥ 200 | ≥ 200 | 165 (≈ 752 µg/mL) | ≥ 200 | ≥ 200 | ≥ 200 | 27.3 | 27.3 | 27.3 | 27.3 | 27.3 | 27.3 | 27.3 | 9.54 | 73.0 | 73.0 | Ratio rCT/rAmylin binding [3, 21]: 73.0; pIC50 (rat calcitonin receptor): 7.68
